Laboratory results reported in patent publication US7879887B2, “α-amino acid derivatives and medicaments containing the same as an active ingredient” (Nissan Chemical Industries, Ltd., priority 2006, dated 2011).

Legend:
CDK3/Cyclin E complex = target: T1, CDK3/Cyclin E complex (Homo sapiens, UniProt Q00526); experiment: In vitro kinase assay, CDK3/Cyclin E complex; format: biochemical; conditions: recombinant protein (Upstate); read-out: CDK3/cyclinE IC50
T1 construct: purchased Upstate Inc. 14-487
T1 sequence (Q00526 whole entry): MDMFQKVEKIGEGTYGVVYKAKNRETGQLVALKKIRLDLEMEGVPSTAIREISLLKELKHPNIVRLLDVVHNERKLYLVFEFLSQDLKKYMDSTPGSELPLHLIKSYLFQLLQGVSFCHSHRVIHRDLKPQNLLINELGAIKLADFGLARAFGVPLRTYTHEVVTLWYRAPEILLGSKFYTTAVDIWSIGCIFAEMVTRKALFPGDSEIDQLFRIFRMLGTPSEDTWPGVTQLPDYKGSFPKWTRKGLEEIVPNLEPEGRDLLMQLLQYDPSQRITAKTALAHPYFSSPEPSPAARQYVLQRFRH
T1 sequence (P24864 whole entry partner): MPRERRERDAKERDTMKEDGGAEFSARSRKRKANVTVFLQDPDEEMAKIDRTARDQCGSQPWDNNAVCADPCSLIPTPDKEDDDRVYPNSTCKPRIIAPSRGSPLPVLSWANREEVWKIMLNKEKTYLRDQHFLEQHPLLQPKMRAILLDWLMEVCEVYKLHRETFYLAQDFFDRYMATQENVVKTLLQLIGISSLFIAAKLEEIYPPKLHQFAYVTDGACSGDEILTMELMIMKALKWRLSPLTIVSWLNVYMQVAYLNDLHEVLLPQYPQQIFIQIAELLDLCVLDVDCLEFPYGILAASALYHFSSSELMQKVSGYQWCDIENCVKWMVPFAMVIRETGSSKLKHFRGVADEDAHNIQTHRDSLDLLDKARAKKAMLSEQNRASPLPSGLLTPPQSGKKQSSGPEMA
Description: Inhibitory activity against Aurora A, CDK1/Cyclin B complex, CDK2/Cyclin E complex and CDK3/Cyclin E complex were measured by in vitro kinase assay using recombinant proteins.

recombinant human βARK1 = target: T2, recombinant human βARK1 (Homo sapiens, UniProt P25098); experiment: Inhibitory activity against βARK1 (33P phosphorylation of synthetic peptide); format: biochemical; conditions: recombinant human βARK1, 60 minutes at room temperature
T2 construct: made in house; host or cells: Sf-9 insect cells (baculovirus, pBacPAK8)
T2 sequence (P25098 1-689): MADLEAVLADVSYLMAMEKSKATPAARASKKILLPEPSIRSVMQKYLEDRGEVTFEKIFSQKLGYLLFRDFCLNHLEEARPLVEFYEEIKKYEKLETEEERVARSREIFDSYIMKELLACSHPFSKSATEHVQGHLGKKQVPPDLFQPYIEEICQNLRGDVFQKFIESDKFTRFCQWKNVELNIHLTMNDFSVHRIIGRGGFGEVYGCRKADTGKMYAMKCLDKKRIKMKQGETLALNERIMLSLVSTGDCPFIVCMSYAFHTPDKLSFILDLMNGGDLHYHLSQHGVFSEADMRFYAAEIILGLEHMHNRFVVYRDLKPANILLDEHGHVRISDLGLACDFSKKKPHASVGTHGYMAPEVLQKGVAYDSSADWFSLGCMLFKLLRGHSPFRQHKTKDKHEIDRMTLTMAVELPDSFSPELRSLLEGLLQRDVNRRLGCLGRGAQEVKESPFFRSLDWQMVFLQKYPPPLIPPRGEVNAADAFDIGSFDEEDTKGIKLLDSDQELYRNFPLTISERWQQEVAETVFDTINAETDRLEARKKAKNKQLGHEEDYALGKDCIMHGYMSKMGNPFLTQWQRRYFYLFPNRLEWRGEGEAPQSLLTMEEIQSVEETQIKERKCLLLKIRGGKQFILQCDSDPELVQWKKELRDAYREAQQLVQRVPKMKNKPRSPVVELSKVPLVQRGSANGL
Description: Human βARK1 was amplified by PCR based on the base sequence of human βARK1 mRNA registered in GenBank (Accession No. M80776) using a human leukocyte cDNA library (Gibco BRL Cat. No. 10421-022) as a template. The amplified cDNA fragment was inserted into a pBacPAK8 vector (Clontech) to construct a plasmid.
Recombinant human βARK1 was expressed using the BacPAK Baculovirus Expression System (Clontech, Cat. No. K1601-1). 1×10^6 Sf-9 cells were adhered to a 35 mm dish in 2.5 mL of TMN-FH Insect Medium containing 10 vol % FBS (Pharminogen, Cat. No. PM-21227M) and cultured overnight at 27° C. On the following day, the medium was removed and 500 ng of the above plasmid, BacPAK6 viral DNA cleaved with Bsu36I (5 μL) and 1.5 mL of the same medium mixed with 4 μL of Bacfectin were added followed by culturing for 5 hours, further adding 1.5 mL of medium and subsequently culturing for 5 days. […] The culture supernatant after 5 days was recovered and a plaque assay was carried out to isolate single plaques. These were then infected into Sf-9 cells and the resulting culture supernatant was designated as Passage 1 (1−3×10^11 pfu/mL). Passage 1 was added to 3×10^7 Sf-9 cells to a multiplicity of infection (MOI) of 0.1 (pfu/cell), suspension culturing was carried out for 5 days using a spinner flask, and the resulting culture supernatant was designated as Passage 2 (4×10^10 pfu/mL) and used as a viral liquid for large-volume expression.
Sf-9 cells at 3×10^9 cells/200 mL were infected by adding Passage 2 to an MOI of 100 followed by addition of medium to bring to a liquid volume of 2 L and further culturing for 3 days. After recovering the cells by centrifugation and washing three times with PBS, the cells were suspended in 100 mL of Lysis Buffer (20 mmol/L HEPES-HCl (pH 7.2), 5 mmol/L EDTA, 3 mmol/L phenylmethylsulfonyl fluoride (PMSF)). After lysing the cells by ultrasonic treatment at low temperature, the supernatant was recovered by centrifuging (45,000×g, 15 minutes) (sup1). NaCl was added to the resulting supernatant to a final concentration of 250 mmol/L followed by ultracentrifugation (300,000×g, 60 minutes) and using the subsequent supernatant as a crude cell extract (sup2).
Purification was carried out with reference to the literature (Benovic, J. L., Methods Enzymol. 1991; 200: 351-362; Kim, C. M. et al., Receptor 1993; 3: 39-55; Sohlemann, P. et al., FEBS Letters 1993; 324: 59-62). The crude cell extract was accurately brought to a volume of 400 mL with Buffer C (20 mmol/L HEPES-HCl (pH 7.2), 5 mmol/L EDTA, 0.02 vol % Triton X-100) followed by loading onto a 50 mL SP-Sepharose FF (Amersham Pharmacia Biotech) column equilibrated with Buffer C. […] ETA was carried out on each fraction using anti-GRK2 antibody (Santa-Cruz Cat. No. SC-562) and the positive fractions were collected (GRK2=βARK1). This was then diluted three-fold with Buffer C and loaded on a 5 mL HiTrap Heparin column (Amersham Pharmacia Biotech) column equilibrated with Buffer C. After washing the column with Wash Buffer (100 mmol/L NaCl, Buffer C), the column was eluted with an NaCl concentration gradient (100 to 600 mmol/L NaCl for 100 minutes, flow rate: 1 mL/min). The positive fractions as determined by ETA were collected and stored in a freezer at −80° C.
A synthetic peptide having an amino acid sequence of biotinated-[…] was used in accordance with a previous report (Chen, C. Y. et al., J. Biol. Chem. 1993; 268: 7825-7831). This synthetic peptide can also be synthesized with reference to known synthesis methods (for example, Chen, C. Y. et al., J. Biol. Chem. 1993; 268: 7825-7831, Biochemistry 1991; 30: 5118-5125). 2 μl of a DMSO solution in which the test compound was diluted to as to be […] the final concentration was dispensed into a 96-well plate (round bottom) (Falcon 351190) (final concentration: 4 vol % DMSO). […]

SMILES	IC50 (CDK3/Cyclin E complex)	IC50 (recombinant human βARK1)
O=C(CNc1ccc(Cl)c(O)c1)Nc1nc2ccc3[nH]ncc3c2s1 [compound 6]	28 nM	4 nM
CC(=O)Nc1cc(NCC(=O)Nc2nc3ccc4[nH]ncc4c3s2)ccc1Cl [compound 16]	50 nM	8.3 nM
CC(C)(Nc1cccc(O)c1)C(=O)Nc1nc2ccc3[nH]ncc3c2s1 [compound 33]	33 nM	7.8 nM
CC(C)(Nc1ccc(Cl)cc1)C(=O)Nc1nc2ccc3[nH]ncc3c2s1 [compound 35]	80 nM	8.8 nM
CC(=O)Nc1cc(NC(C)(C)C(=O)Nc2nc3c(C(F)(F)F)cc4[nH]ncc4c3s2)ccc1Cl [compound 53]	45 nM	2 nM
CNC(=O)c1cc(NC(C)(C)C(=O)Nc2nc3c(C(F)(F)F)cc4[nH]ncc4c3s2)ccc1Cl [compound 55]	23 nM	6.3 nM
CCNC(=O)c1cc(NC(C)(C)C(=O)Nc2nc3c(C(F)(F)F)cc4[nH]ncc4c3s2)ccc1F [compound 58]	47 nM	6.4 nM
CCNC(=O)c1cc(NC(C)(C)C(=O)Nc2nc3c(C(F)(F)F)cc4[nH]ncc4c3s2)ccc1Cl [compound 60]	16 nM	4.5 nM
CC(C)(Nc1ccc(Cl)c(C(=O)NC2CC2)c1)C(=O)Nc1nc2c(C(F)(F)F)cc3[nH]ncc3c2s1 [compound 75]	41 nM	8.8 nM
CC(=O)Nc1cc(NC(C)(C)C(=O)Nc2nc3c(C(F)(F)F)cc4[nH]ncc4c3s2)ccc1F [compound 81]	55 nM	8.3 nM
CC(C)(Nc1cccc(S(N)(=O)=O)c1)C(=O)Nc1nc2c(C(F)(F)F)cc3[nH]ncc3c2s1 [compound 82]	5.9 nM	9.3 nM
CC(C)(Nc1ccc(Cl)c(C(=O)NCC(N)=O)c1)C(=O)Nc1nc2c(C(F)(F)F)cc3[nH]ncc3c2s1 [compound 85]	0.6 nM	9.9 nM
CC(C)(Nc1ccc(Cl)c(O)c1)C(=O)Nc1nc2c(C(F)(F)F)cc3[nH]ncc3c2s1 [compound 95]	22 nM	8.7 nM
O=C(Nc1nc2ccc3[nH]ncc3c2s1)C1(Nc2ccc(Cl)cc2)CC1 [compound 117]	44 nM	3.9 nM
CCOC(=O)c1cc(NC2(C(=O)Nc3nc4ccc5[nH]ncc5c4s3)CC2)ccc1Cl [compound 118]	169 nM	8.7 nM
CC(=O)Nc1cc(NC2(C(=O)Nc3nc4ccc5[nH]ncc5c4s3)CC2)ccc1F [compound 120]	105 nM	3.7 nM
CCC(=O)Nc1cc(NC2(C(=O)Nc3nc4ccc5[nH]ncc5c4s3)CC2)ccc1F [compound 121]	125 nM	4.6 nM
CNC(=O)c1cc(NC2(C(=O)Nc3nc4ccc5[nH]ncc5c4s3)CC2)ccc1Cl [compound 126]	38 nM	7.5 nM
CC(=O)Nc1cc(NC(C)(C)C(=O)Nc2nc3ccc4[nH]ncc4c3s2)ccc1Cl [compound 128]	61 nM	2.8 nM
CCC(=O)Nc1cc(NC(C)(C)C(=O)Nc2nc3ccc4[nH]ncc4c3s2)ccc1Cl [compound 129]	103 nM	3.9 nM
O=C(Nc1nc2ccc3[nH]ncc3c2s1)C(CO)Nc1ccc(Cl)cc1 (stereo not shown) [compound 132]	29 nM	7.7 nM
CC(C)(Nc1ccc(Cl)c(C(N)=O)c1)C(=O)Nc1nc2c(C(F)(F)F)cc3[nH]ncc3c2s1 [compound 135]	23 nM	3.2 nM
CC(C)(Nc1ccc(Cl)c(C(=O)NCCCC(=O)O)c1)C(=O)Nc1nc2c(C(F)(F)F)cc3[nH]ncc3c2s1 [compound 144]	180 nM	7.7 nM
